Data taken from patent US20130216590A1, “TOPICAL ANTIVIRAL FORMULATIONS FOR PREVENTION OF TRANSMISSION OF HSV-2” (priority 2010, published 2013).
≈ marks a conversion by molar mass, not a printed value. Read-outs that look alike come from different tables or passages of the source.

Legend:
[1] = test system: HSV-2 strain G (HSV-2G); assay: Human ex vivo tonsillar tissue, HSV DNA release by real-time PCR; format: cell-based
Procedure: For each experimental condition 16 tissue blocks were immersed in 500 μl of a HSV-2 (strain G) suspension for 2 hours at 37° C., washed three times with PBS and then placed on the gelfoam rafts. Tenofovir was added during the infection and replenished at each culture medium change. Herpes simplex viral replication was evaluated by the release of viral DNA into the culture medium as measured by quantitative real-time PCR (17). HIV-1 replication was evaluated by the release of p24 capsid antigen using a bead-based assay (18).

[2] = test system: HSV-1 (Kos strain); assay: In vivo antiviral activity in HSV-1-infected NMRI athymic nude mice; conditions: 1% topical, 5 days
Procedure: (§1) Adult NMRI athymic nude mice (weighing ˜20 g) were scarified on the lumbosacral area over a surface of about 1 cm^2. Mice were inoculated with 5×10^3 PFU of HSV-1 (Kos strain) or 5×10^2 of HSV-2 (G strain) in 50 μL per mouse. […] In each experiment, a group of animals treated with a placebo formulation that was the same as the test formulation without drug was included as a negative control. […] The day of virus inoculation was always considered as day 0. All animal procedures were approved by the K.U. Leuven Animal Care Committee. Development of lesions and mortality were recorded over a one month period. Animals were euthanized when more than 30% loss in body weight or development of paralysis occurred. Survival rates were estimated according to the Kaplan-Meir method and were compared using the log-rank test (Mantel-Cox) test (GraphPad Prism).

[3] = test system: HSV-2 (G); assay: Co-infection of TZM-bl cells with HIV-1 and HSV-2: HSV-2-induced cytopathicity; format: cell-based; conditions: TZM-bl cultures co-infected with HIV-1(NL4.3) and HSV-2(G)
Procedure: The TZM-bl cell line is derived from HeLa cells and expresses high levels of CD4, CCR5 and CXCR4. In addition, this cell line is stably transduced with a LTR-driven firefly luciferase and E. coli-galactosidase gene (15). In a 96-well tray, 10,000 TZM-bl cells were seeded on day 1. […] Next, 100 μl of a virus suspension containing either HIV-1 (NL4.3), HSV-2 (G) or both viruses together was administered. Two to three days post infection, HIV-1 infection was monitored based on the determination of luciferase activity. For this means, 100 μl of culture supernatant was removed and 100 μl of Bright-Glo Luciferase Assay Substrate (Promega, Madison, USA) was added. The luminescence signal was measured using the Safire 2 microtiter plate reader (Tecan, Männedorf, Switzerland). A control condition containing only mock-infected cells was also included to measure the background luminescence levels. Three days post infection, HSV-2-induced cytopathicity was recorded microscopically based on giant cell formation.

[4] = test system: HSV-2 wt clinical isolates; assay: HSV CPE reduction assay, clinical isolates in HEL fibroblast cell cultures; format: cell-based; conditions: Human alphaherpesvirus 2, Fibroblast
[5] = test system: HSV-1 strain F (HSV-1F); assay: Human ex vivo tonsillar tissue, HSV DNA release by real-time PCR; format: cell-based; conditions: Human alphaherpesvirus 1, read-out: EC50, suppression of replication
[6] = test system: HSV-2; assay: Herpes virus infection of primary monocyte/macrophage (M/M) cell cultures; format: cell-based
Procedure: Human peripheral blood mononuclear cells (PBMCs) were obtained from the blood of healthy seronegative donors by Ficoll-Hypaque density gradient centrifugation. […] Monocyte/macrophage (M/M) cells were separated by adherence onto plastic. […] African green monkey fibroblastoid kidney (Vero) cells highly sensitive to the cytopathic effect of HSV-2 were grown in RPMI medium supplemented with 10% heat inactivated FCS and were used in infectious virus titration assays.
Macrophage cultures were then infected with HSV-2 (100 CCID50) in the presence of the test compounds. After 2 hrs virus adsorption, the cultures were extensively washed to remove any residual virus particles. Fresh culture medium and compounds, at the indicated concentrations, were then added to the cultures. […] Appropriate positive (infected but not treated M/M) and mock-infected negative (uninfected and untreated M/M) controls were run for each experiment as well. All assays were performed in triplicate. […] Therefore, the potential inhibitory effect of the compounds on the replication of HSV-2 was evaluated 6 days after infection. The amount of infectious virus in the supernatants was determined by a classical limited dilution assay on Vero cell cultures. The titers of produced virus were calculated according to the Reed and Muench method and expressed as 50% tissue culture infective dose per ml (TCID50/ml).
The inhibition capacity was expressed in % and calculated considering as value 100 being the virus production in virus-infected untreated cultures.

[7] = test system: HIV-1; conditions: cited from earlier work
[8] = test system: HSV-2 (G strain); assay: In vivo antiviral activity in HSV-2-infected NMRI athymic nude mice
Procedure: as §1

[9] = test system: HSV-1 (KOS); assay: Organotypic epithelial raft cultures infected with HSV-1; format: cell-based
Procedure: For the preparation of epidermal equivalents, a collagen matrix solution was made with collagen mixed on ice with 10-fold concentrated HAM's F12 media, 10-fold reconstitution buffer and Swiss 3T3 J2 fibroblasts. One milliliter of the collagen matrix solution was poured into the wells of 24-well microtiter plates. After gel equilibration with 1 ml of growth medium overnight at 37° C., 2.5×10^5 PHK cells were seeded on the top of the gels and maintained submerged for 24-48 hours. The collagen rafts were raised and placed onto stainless-steel grids at the interface between air and liquid culture medium. The growth medium was a mixture of ⅓ HAM F12 and ⅔ Dulbecco's modified Eagle's medium, with the same supplements as used for the Keratinocyte-SFM. Epithelial cells were allowed to stratify, the medium being replaced every 2-3 days. For the evaluation of the antiviral effects of the compounds in the raft system, two series of rafts were run in parallel, one for histological examination and the other one for quantification of viral production by a plaque reduction assay. Rafts were infected with 5,000 PFU of HSV-1 (KOS) or […] strains after 10 days post-lifting and then the medium was replaced by medium containing different dilutions of the compounds. The growth medium containing the different concentrations of the compounds was changed two days later and 3 days later (after 15 days of differentiation), one series of rafts was fixed in 10% buffered formalin, embedded in paraffin and stained with hematoxylin and eosin for histological evaluation. Another series of rafts was used to quantify virus production. For that purpose, each raft was frozen in 3 ml phosphate buffer saline (PBS) and thawed to release the virus from the infected epithelium. Supernatants were clarified by centrifugation at 1,800 rpm and titrated by a plaque assay in HEL cell cultures. Virus production in each raft was then calculated. Two rafts were used for each drug concentration to determine the effects of the compounds on virus yield.

In the case of C[C@H](Cn1cnc2c(N)ncnc21)OCP(=O)(O)O [tenofovir, (R)-9-(2-phosphonylmethoxypropyl)adenine], the “reduction of replication compared to infected donor matched-untreated tissue” value ([1]; 66 μg/ml, HSV-2G) is reported as 94±7%, the “release of viral DNA in culture medium” value ([1]; 66 μg/ml, day 9 post infection, IQR 3.6-6.1, untreated 7.6) is reported as 5.2 log10 DNA copies/ml and the EC50 ([1]; Human alphaherpesvirus 2, read-out: EC50, suppression of replication) is reported as 14 µg/mL (≈ 48.7 µM). The “morbidity and survival curves compared to the placebo-treated group” value [2] was “significantly delayed”, the “drug concentration that prevented HSV-2 infection” value [3] was about 60 µg/mL and the EC50 ([4]; read-out: mean EC50) was at least 157 µg/mL. For the same molecule, the EC50 ([4]; read-out: range of EC50) was at least 125 µg/mL, the EC50 [5] was 7 µg/mL (≈ 24.4 µM) and the CPE ([6]; 1 μg/ml or 0.2 μg/ml, day 6) was 70-80%. For the same molecule, the “virus titer in supernatants” value ([6]; 1 μg/ml or 0.2 μg/ml, day 6) was 2.5×10^5 TCID50/ml, the “visible CPE” value ([6]; 5 μg/ml, day 6) was 30% and the “visible CPE” value ([6]; 20 μg/ml, day 6) was about 5%. For the same molecule, the “virus titers in the culture supernatants versus untreated controls” value ([6]; 20 and 5 μg/ml, day 6) was “more than one log lower”, the virus replication ([6]; 500 and 100 μg/ml, day 6 post virus infection) was “completely suppressed virus replication” and the “reduction of HIV-1 transmission” value ([7]; 1% gel, women with high adherence) was 54%. For the same molecule, the “overall decrease in the frequency of the sexual transmission of HIV-1” value ([7]; formulated as a 1% gel, approximately 900 African women) was 39%, the “survival curves and morbidity curves versus the placebo group” value ([8]; DMSO formulation, starting the day of infection) was “statistically significant difference” and the “appearance of lesions and subsequent death” value ([8]; formulated in the gel at 1%) was “delayed the appearance of herpes virus-related lesions and subsequent death”. The “protection of the epithelium from HSV-1-induced cytopathic effect” value ([9]; 20 μg/ml) was “full destruction”, the “protection of the epithelium from HSV-1-induced cytopathic effect” value ([9]; 50 μg/ml) was “partial protection” and the “reduction in virus yield” value ([9]; HSV-1, 50 μg/ml) was 0.81 logs. For the same molecule, the “log reduction in virus production (PFU) per raft” value ([9]; HSV-1, 200 μg/ml) was 2.6 log and the “concentration giving complete protection from virus-induced cytopathic effect” value ([9]; reference HSV-1 laboratory strain) was 200 µg/mL.
